Patent publication US11542257B2, “Arylnaphthalene compounds as vacuolar-ATPase inhibitors and the use thereof” (priority 2018, dated 2023)
Where two headings read alike, the source gives them in different places.

Tests used:
[1] = in vitro; conditions: human
[2] = Cytotoxicity (MTT), A549 cells; conditions: human
[3] = tested on: Ebolavirus (EBOV); assay: organism not typed; type: cell-based; conditions: for IC50: read-out: EBOV IC50
[4] = tested on: endosomal acidification in HEK293 cells; assay: cells; type: cell-based; conditions: for IC50: read-out: HEK AO IC50
[5] = tested on: endosomal acidification in A549 cells; assay: Inhibition of cellular endosomal acidification, acridine orange (AO), A549 cells; type: cell-based
[6] = molecular target: T1, V-ATPase (Homo sapiens, UniProt P27449+Q93050); type: biochemical
[7] = molecular target: T1, V-ATPase; assay: Acridine orange quenching in isolated HEK293 vesicles (proton-pumping function of V-ATPase); type: biochemical
[8] = tested on: filoviral infection of primary human macrophages (PHM); type: cell-based, filovirus; conditions: read-out: PHM Antiviral IC50
[9] = tested on: Marburg virus (MARV); type: cell-based
[10] = tested on: cytosolic pH of HEK293 cells; assay: Cytosolic pH, BCECF-AM, HEK293 cells; type: cell-based; conditions: FIG. 1B
[11] = tested on: A549 cells; assay: Cytotoxicity (MTT), A549 cells; conditions: read-out: A549 CC50, 72 h, MTT
[12] = tested on: HEK293 cells
[13] = tested on: endosomal pH of HEK293 cells; assay: Intracellular endosomal pH, FITC-dextran, HEK293 cells; type: cell-based; conditions: HEK293, 4 h, 1-3 μM, FIG. 1C

T1 sequence (P27449 whole entry, looked up): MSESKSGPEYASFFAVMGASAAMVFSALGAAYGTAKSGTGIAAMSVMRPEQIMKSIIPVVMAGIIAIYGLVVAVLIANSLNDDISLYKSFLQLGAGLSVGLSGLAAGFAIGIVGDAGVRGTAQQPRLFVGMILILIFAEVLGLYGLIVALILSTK
T1 sequence (Q93050 whole entry, looked up): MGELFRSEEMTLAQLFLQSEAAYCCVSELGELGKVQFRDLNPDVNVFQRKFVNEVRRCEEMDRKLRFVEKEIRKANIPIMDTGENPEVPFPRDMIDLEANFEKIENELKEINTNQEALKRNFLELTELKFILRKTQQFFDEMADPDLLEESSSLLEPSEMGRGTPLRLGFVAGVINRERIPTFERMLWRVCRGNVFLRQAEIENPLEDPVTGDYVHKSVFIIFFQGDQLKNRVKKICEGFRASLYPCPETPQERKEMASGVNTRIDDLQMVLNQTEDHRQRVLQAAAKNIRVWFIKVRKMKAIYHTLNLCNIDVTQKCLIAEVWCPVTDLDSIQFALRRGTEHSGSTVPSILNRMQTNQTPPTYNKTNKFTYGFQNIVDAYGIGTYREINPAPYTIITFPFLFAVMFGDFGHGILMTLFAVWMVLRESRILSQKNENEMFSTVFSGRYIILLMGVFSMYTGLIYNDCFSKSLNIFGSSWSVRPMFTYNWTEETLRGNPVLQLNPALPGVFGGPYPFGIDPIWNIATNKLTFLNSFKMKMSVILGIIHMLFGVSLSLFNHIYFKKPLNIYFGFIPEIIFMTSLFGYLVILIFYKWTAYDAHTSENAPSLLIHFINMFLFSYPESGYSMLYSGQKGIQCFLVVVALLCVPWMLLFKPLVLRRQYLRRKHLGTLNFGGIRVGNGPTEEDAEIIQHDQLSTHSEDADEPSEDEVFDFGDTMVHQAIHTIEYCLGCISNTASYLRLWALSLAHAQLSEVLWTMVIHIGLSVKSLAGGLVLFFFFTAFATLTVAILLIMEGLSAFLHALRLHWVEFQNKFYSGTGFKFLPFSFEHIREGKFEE

Row | Structure (SMILES) | CC50 [1] [nM] | CC50 at 72 h [2] [nM] | IC50 ([3]; HeLa) [nM] | IC50 ([4]; Homo sapiens, HEK293, 4 h) [nM] | inhibition of ATP hydrolysis, in words [6] | IC50 [3] [nM] | IC50 [4] [nM] | IC50 [5] [nM] | also measured
1 | COc1cc2c(O)c3c(c(-c4ccc5c(c4)OCO5)c2cc1OC)C(=O)N(N)C3 [Compound 3a, 2-amino-9-(benzo[d][1,3]dioxol-5-yl)-4-hydroxy-6,7-dimethoxy-2,3-dihydro-1H-benzo[f]isoindol-1-one] | 48900 ± 3610 | 28700 ± 16600 | 3940 ± 604 | 9060 ± 893 | – | – | – | – | effect on endosomal acidification (AO fluorescence ratio), in words [4]: moderately inhibited acidification; IC50 ([5]; Homo sapiens): 8110 ± 670 nM
2 | C#CCOc1c2c(c(-c3ccc4c(c3)OCO4)c3cc(OC)c(OC)cc13)C(=O)OC2 [Compound 2d, 9-(benzo[d][1,3]dioxol-5-yl)-6,7-dimethoxy-4-(prop-2-yn-1-yloxy)naphtho[2,3-c]furan-1(3H)-one] | 2040 | – | 175 ± 21.7 | 263 ± 46.6 | – | – | – | – | –
3 | COc1cc2c(OC)c3c(c(-c4ccc5c(c4)OCO5)c2cc1OC)C(=O)OC3 [Compound 2b, 9-(benzo[d][1,3]dioxol-5-yl)-4,6,7-trimethoxynaphtho[2,3-c]furan-1(3H)-one] | 5730 ± 841 | > 100000 | – | – | inhibited ATP hydrolysis to a similar extent | 171 ± 40.2 | 265 ± 58.6 | 58.2 ± 8.76 | –
4 | COc1cc2c(O)c3c(c(-c4ccc5c(c4)OCO5)c2cc1OC)C(=O)N(/N=C/c1ccccc1)C3 [Compound 3b, (E)-9-(benzo[d][1,3]dioxol-5-yl)-2-(benzylideneamino)-4-hydroxy-6,7-dimethoxy-2,3-dihydro-1H-benzo[f]isoindol-1-one] | – | – | 6630 ± 437 | > 10000 | – | – | – | – | –
5 | COc1cc2c(OCCCN3CCOCC3)c3c(c(-c4ccc5c(c4)OCO5)c2cc1OC)C(=O)OC3 [Compound 2g, 9-(benzo[d][1,3]dioxol-5-yl)-6,7-dimethoxy-4-(3-morpholinopropoxy)naphtho[2,3-c]furan-1(3H)-one] | – | > 100000 | – | – | inhibited ATP hydrolysis to a similar extent | 107 ± 23.7 | 74.3 ± 23.9 | 56.1 ± 15.9 | times better activity than diphyllin (proton pumping activity of V-ATPase) [7]: 7 times; IC50 [8]: 57.7 ± 8.6 nM; IC50 [9]: 135 ± 11.4 nM
6 | COc1cc2c(O)c3c(c(-c4ccc5c(c4)OCO5)c2cc1OC)C(=O)N(/N=C/c1ccc(Cl)cc1)C3 [Compound 3d, (E)-9-(benzo[d][1,3]dioxol-5-yl)-2-((4-chlorobenzylidene)amino)-4-hydroxy-6,7-dimethoxy-2,3-dihydro-1H-benzo[f]isoindol-1-one] | 28400 ± 2710 | 78000 ± 26400 | – | – | – | 1170 ± 518 | 9930 ± 140 | 8440 ± 367 | times less effective than diphyllin (AO quenching) [7]: 4 times
7 | CCOc1c2c(c(-c3ccc4c(c3)OCO4)c3cc(OC)c(OC)cc13)C(=O)OC2 [Compound 2c, 9-(benzo[d][1,3]dioxol-5-yl)-4-ethoxy-6,7-dimethoxynaphtho[2,3-c]furan-1(3H)-one] | 2380 | 77400 ± 11000 | – | – | inhibited ATP hydrolysis to a similar extent | 112 ± 14.7 | 254 ± 49 | 52.4 ± 19.3 | –
8 | CO/C1=C\C(C)=C\[C@@H](C)[C@@H](O)[C@@H](C)C/C(C)=C/C=C/[C@H](OC)[C@@H]([C@@H](C)[C@@H](O)[C@H](C)[C@@]2(O)C[C@@H](O)[C@H](C)[C@@H](C(C)C)O2)OC1=O [Baf A1, bafilomycin A1, reference compound] | – | – | – | – | – | 14.9 ± 8.93 | 40.5 ± 3.31 | 21.3 ± 2.55 | change in cytosolic pH compared to the vehicle treated control [10]: no significant change; CC50 [11]: 479 ± 266 nM; CC50 [12]: 320 ± 42 nM
9 | COc1cc2c(O)c3c(c(-c4ccc5c(c4)OCO5)c2cc1OC)C(=O)OC3 [Compound 2a, 9-(benzo[d][1,3]dioxol-5-yl)-4-hydroxy-6,7-dimethoxynaphtho[2,3-c]furan-1(3H)-one, reference compound] | – | 50100 ± 15500 | – | – | inhibited ATP hydrolysis to a similar extent | 678 ± 161 | 476 ± 60.1 | 149 ± 20.5 | times less potent than bafilomycin A1 (V-ATPase-mediated fluorescent quenching) [7]: about 7.5 times; change in cytosolic pH compared to the vehicle treated control [10]: no significant change; IC50 [9]: 1770 ± 80 nM; endosomal pH after treatment [13]: ~7 pH
10 | C#CCCCOc1c2c(c(-c3ccc4c(c3)OCO4)c3cc(OC)c(OC)cc13)C(=O)OC2 [Compound 2e, 9-(benzo[d][1,3]dioxol-5-yl)-6,7-dimethoxy-4-(pent-4-yn-1-yloxy)naphtho[2,3-c]furan-1(3H)-one] | – | > 100000 | – | – | inhibited ATP hydrolysis to a similar extent | 73.2 ± 11.9 | 102 ± 19 | 84.8 ± 11.9 | times better activity than Bafilomycin A1 (proton pumping activity of V-ATPase) [7]: 2 times; times better activity than diphyllin (proton pumping activity of V-ATPase) [7]: 17 times; IC50 [8]: 240 nM; IC50 [9]: 402 ± 45.9 nM
11 | CCOC(=O)CN1CCN(CCCOc2c3c(c(-c4ccc5c(c4)OCO5)c4cc(OC)c(OC)cc24)C(=O)OC3)CC1 [Compound 2h, ethyl 2-(4-(3-((9-(benzo[d][1,3]dioxol-5-yl)-6,7-dimethoxy-1-oxo-1,3-dihydronaphtho[2,3-c]furan-4-yl)oxy)propyl)piperazin-1-yl)acetate] | – | > 100000 | – | – | inhibited ATP hydrolysis to a similar extent | 132 ± 32.3 | 172 ± 40.6 | 101 ± 13.8 | IC50 [8]: 256 nM; IC50 [9]: 81.6 ± 28.7 nM
12 | COc1cc2c(O)c3c(c(-c4ccc5c(c4)OCO5)c2cc1OC)C(=O)N(/N=C/c1c(F)c(F)c(F)c(F)c1F)C3 [Compound 3h, (E)-9-(benzo[d][1,3]dioxol-5-yl)-4-hydroxy-6,7-dimethoxy-2-(((perfluorophenyl)methylene)amino)-2,3-dihydro-1H-benzo[f]isoindol-1-one] | – | – | 8740 ± 2180 | > 10000 | – | – | – | – | –
13 | COc1cc2c(O)c3c(c(-c4ccc5c(c4)OCO5)c2cc1OC)C(=O)N(/N=C/c1ccc(C#N)cc1)C3 [Compound 3g, (E)-4-(((9-(benzo[d][1,3]dioxol-5-yl)-4-hydroxy-6,7-dimethoxy-1-oxo-1,3-dihydro-2H-benzo[f]isoindol-2-yl)imino)methyl)benzonitrile] | – | – | 1690 ± 233 | > 10000 | – | – | – | – | –
14 | COc1cc2c(OCCCN3CCN(CCO)CC3)c3c(c(-c4ccc5c(c4)OCO5)c2cc1OC)C(=O)OC3 [Compound 2i, 9-(benzo[d][1,3]dioxol-5-yl)-4-(3-(4-(2-hydroxyethyl)piperazin-1-yl)propoxy)-6,7-dimethoxynaphtho[2,3-c]furan-1(3H)-one] | – | – | – | – | – | 76.2 ± 14.6 | 104 ± 21.2 | – | –
15 | COc1cc2c(O)c3c(c(-c4ccc5c(c4)OCO5)c2cc1OC)C(=O)N(/N=C/c1cccnc1)C3 [Compound 3c, (E)-9-(benzo[d][1,3]dioxol-5-yl)-4-hydroxy-6,7-dimethoxy-2-((pyridin-3-ylmethylene)amino)-2,3-dihydro-1H-benzo[f]isoindol-1-one] | 49900 ± 15900 | 50100 ± 27700 | – | – | – | 4480 ± 467 | 8710 ± 769 | 11600 | times less effective than diphyllin (AO quenching) [7]: 2 times
16 | COc1cc2c(OC(C)=O)c3c(c(-c4ccc5c(c4)OCO5)c2cc1OC)C(=O)N(CCO)C3=O [Compound 1e, 9-(benzo[d][1,3]dioxol-5-yl)-2-(2-hydroxyethyl)-6,7-dimethoxy-1,3-dioxo-2,3-dihydro-1H-benzo[f]isoindol-4-yl acetate] | – | – | 5400 ± 2920 | > 10000 | – | – | – | – | active in screen for inhibition of ebolavirus infection [3]: active; effect on endosomal acidification (AO fluorescence ratio), in words [4]: did not cause a significant change in the fluorescence ratio
17 | COc1cc2c(OCCCC#N)c3c(c(-c4ccc5c(c4)OCO5)c2cc1OC)C(=O)OC3 [Compound 2f, 4-((9-(benzo[d][1,3]dioxol-5-yl)-6,7-dimethoxy-1-oxo-1,3-dihydronaphtho[2,3-c]furan-4-yl)oxy)butanenitrile] | 3310 ± 740 | – | 93.1 ± 26.8 | 98.7 ± 29.5 | – | – | – | – | –
